In test [1] the test system is CAMBIA 1302 plasmid. In words: DNA binding by agarose gel electrophoresis (gel mobility). Particulars: 50 ng plasmid, 100-300 ng fullerene compound, preincubated 15-30 minutes. The protocol: Each tube was allowed to bind for 15-30 minutes and then place on an agarose gel. […] After running the gel, the bands were visualized using post-staining with commercial SBER SAFE™ 10000× stain.
DNA binding was measured at different fullerene nanoparticle/DNA ratios. The DNA-binding ability of the fullerene test compounds 1, 2, 4, and 6 was examined by direct DNA binding and agarose gel electrophoresis. […] In each case, 50 ng plasmid DNA was preincubated for 30 minutes with 100-300 nG fullerene compound (FIG. 8). The DNA binding titration of plasmid pCAMBIA 1302 with compound 6 was carried with 50 nG pCAMBIA 1302 and various concentrations (93-3000 nG per 10 microL). Results shown in FIG. 8 indicate optimal binding at a concentration of ˜5-6 equivalents fullerene per DNA. FIG. 8 Lane 1: 50 ng of DNA Plasmid DNA only, Lane 2: 50 ng of DNA Plasmid DNA+3000 ng compound 6 (50 equiv), Lane 3: 50 ng of DNA Plasmid DNA+1500 ng compound 6 (25 equiv), Lane 4: 50 ng of DNA Plasmid DNA+750 ng compound 6 (12 equiv), Lane 5: 50 ng of DNA Plasmid DNA+375 ng compound 6 (6 equiv), Lane 6: 50 ng of DNA Plasmid DNA+187 ng compound 6 (3 equiv), Lane 7: 50 ng of DNA Plasmid DNA+93 ng compound 6 (1.5 equiv). Compound 6 stock solution (0.3 mg/mL) was diluted with TE buffer and 10 microL each fullerene dilution was reincubated with plasmid for […] to loading on the gel.

Test [2] has as its system tobacco protoplast cells. Description: Fullerene-enhanced electroporation, GFP expression. Format: cell-based, Nicotiana tabacum. Particulars: tobacco protoplasts, GFP DNA, fluorescence microscope; without fullerene no GFP expression. The protocol:
One embodiment of the invention is called fullerene-enhanced electroporation. The method comprises (1) mixing fullerene derivative solution with the DNA of interest, (2) addition of fullerene derivative/DNA solution to plant cells or plant protoplasts, and (3) treatment of the mixture in a Gene Pulser cuvette or similar electroporation apparatus for a few minutes. Suspension was then incubated for 2-3 hours or overnight to allow DNA transfer and gene expression to take place. […] On the left is the light microscope picture showing tobacco protoplast cells after electroporation. […] Experiments to test the fullerene nanoparticles for transformation ability used tobacco protoplasts for transient assays. Sterile suspension cultures (5% w/v) of tobacco (Nicotiana tabacum) were grown in MS basal salts media. Suspension cells were incubated in enzyme solution (0.6 M mannitol, 10 mM MES, 1% Cellulase, 0.2% pectinase) at pH 5.7 in the dark, at 24° C. overnight. After incubation, protoplasts were passed through […] nylon mesh, washed and protoplasts pelleted by centrifugation. Protoplasts were resuspended in the appropriate media required for transformation studies. Electroporation is the process where cells are mixed with a DNA construct and then briefly exposed to pulses of high voltage. […]

Test [3] has as its system peanut. Particulars: increased from 3.9% with no antioxidant; cited from earlier work.

Entries after “also recorded” stand apart in the source; their conditions may differ.

polyhydroxy-C60 [Compound 1]: the “DNA binding (change in gel mobility)” value in test [1] was “no DNA binding effect; also recorded: no binding to DNA”. Besides, the “GFP expression after electroporation” value in test [2] is “gene insertion and GFP expression”.
For `N[C@@H](CCC(=O)N[C@@H](CS)C(=O)NCC(=O)O)C(=O)O` [glutathione], the Transformation frequencies in test [3] was 14.6%.
As to tocopherol, the Transformation frequencies in test [3] is 10.3%.
As for `O=[Se](O)O` [selenite], the Transformation frequencies in test [3] is recorded as 12.4%.
For FC4S [Compound 2], in test [1], the “DNA binding (change in gel mobility)” value is “no DNA binding effect; also recorded: no binding to DNA”.

Values taken from patent publication US8614366B2, “Methods for genetic plant transformation using water-soluble fullerene derivatives” (priority 2009, dated 2013).
